The values that follow come from ChEMBL document CHEMBL3727355, “Chemokine receptor activity regulator” (2014).

This assay deals with T1, C-C chemokine receptor type 10 (Homo sapiens) (UniProt P46092).
T1 sequence (whole entry): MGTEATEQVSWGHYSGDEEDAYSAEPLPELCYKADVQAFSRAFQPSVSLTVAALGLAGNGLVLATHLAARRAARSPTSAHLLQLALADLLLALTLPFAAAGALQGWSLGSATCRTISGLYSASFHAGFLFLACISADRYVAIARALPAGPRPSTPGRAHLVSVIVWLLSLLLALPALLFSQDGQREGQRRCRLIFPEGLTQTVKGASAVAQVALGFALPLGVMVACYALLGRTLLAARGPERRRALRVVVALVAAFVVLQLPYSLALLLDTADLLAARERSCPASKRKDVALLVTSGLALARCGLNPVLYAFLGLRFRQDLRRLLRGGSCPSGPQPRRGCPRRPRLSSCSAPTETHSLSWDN
Put plainly: Antagonist activity against human CCR10 expressed in human KJMGER8 cells assessed as inhibition of human recombinant CTACK-induced increase in intracellular calcium level at 100 nmol/L pre-incubated for 30 mins before human recombinant CTACK stimulation for 5 mins by FLIPR assay. In kind it is functional, cell-based. On the technique in general: A change in cytosolic calcium serves as a functional read-out for many receptors and channels.
What is called inhibition is the relative decrease from the control value, in per cent. Take `CCC(=O)NS(=O)(=O)c1cnn2c(Nc3cc(Cl)ccc3Cl)c(C(=O)N3CCC(c4ccc(F)cc4)CC3)cnc12`: the inhibition is more than 100%.

Turning to `Cc1cc(F)ccc1Nc1c(C(=O)N2CCC(c3ccccc3)CC2)cnc2c(S(=O)(=O)NC(=O)CO)cnn12`, the inhibition was more than 100%.

`Cc1ccc(Cl)c(Nc2c(C(=O)N3CCC4(CC3)OCc3ccccc34)cnc3c(S(=O)(=O)NC(=O)C4(C)COC4)cnn23)c1`: the inhibition is more than 100%.

For the compound `Cc1cc(F)ccc1Nc1c(C(=O)N2CCC(c3ccccc3)CC2)cnc2c(S(=O)(=O)/N=C/N(C)C)cnn12`, the inhibition stood at 68.9%.

As for `Cc1ccc(F)c(Nc2c(C(=O)N3CCC4(CC3)OCc3ccccc34)cnc3c(S(=O)(=O)NC(=O)C4CC4)cnn23)c1`, the inhibition is more than 100%.

For the compound `Cc1cc(Nc2c(C(=O)N3CCC(c4ccc(F)cc4)CC3)cnc3c(S(=O)(=O)NC(=O)C4CC4)cnn23)c(Cl)cc1F`, the inhibition was more than 100%.

For `CCNC(=O)NS(=O)(=O)c1cnn2c(Nc3cc(Cl)ccc3Cl)c(C(=O)N3CCC(c4ccc(F)cc4)CC3)cnc12`, the inhibition was found to be 96.7%.

As for `Cc1cc(F)ccc1Nc1c(C(=O)N2CCC(c3ccccc3)CC2)cnc2c(S(=O)(=O)NS(C)(=O)=O)cnn12`, the inhibition turned out to be 88.8%.

Turning to `CCC(=O)NS(=O)(=O)c1cnn2c(Nc3ccc(C)cc3Cl)c(C(=O)N3CCC(c4ccc(F)cc4)CC3)cnc12`, the inhibition is 98.3%.

As for `CCNC(=O)NS(=O)(=O)c1cnn2c(Nc3ccccc3Cl)c(C(=O)N3CCC(c4ccc(F)cc4)CC3)cnc12`, the inhibition was more than 100%.

Take `CCNC(=O)NS(=O)(=O)c1cnn2c(Nc3cc(C)ccc3Cl)c(C(=O)N3CC4(C3)CN(c3ccc(F)cc3)C4)cnc12`: the inhibition worked out at 24.3%.

As for `CC(=O)NS(=O)(=O)c1cnn2c(Nc3cc(Cl)ccc3Cl)c(C(=O)N3CCC(c4ccc(F)cc4)CC3)cnc12`, the inhibition is more than 100%.

On to `CCC(=O)NS(=O)(=O)c1cnn2c(Nc3cc(C)ccc3F)c(C(=O)N3CCC(c4ccc(F)cc4)CC3)cnc12`, for which the inhibition is more than 100%.

Take `CCNC(=O)NS(=O)(=O)c1cnn2c(NCc3ccccc3)c(C(=O)N3CCC(c4ccccc4)CC3)cnc12`: the inhibition was determined as 95.1%.

Turning to `CCNS(=O)(=O)c1cnn2c(Nc3ccc(Cl)cc3C)c(C(=O)N3CCC(c4ccc(F)cc4)CC3)cnc12`, the inhibition was more than 100%.

Turning to `CCNC(=O)NS(=O)(=O)c1cnn2c(Nc3ccccc3Cl)c(C(=O)N3CCC(c4ccccc4)CC3)cnc12`, the inhibition came out at 92.4%.

`CC(=O)NS(=O)(=O)c1cnn2c(Nc3cccc(Cl)c3Cl)c(C(=O)N3CCC(c4ccc(F)cc4)CC3)cnc12`: the inhibition is more than 100%.
